From ChEMBL document CHEMBL1150798, “Combined therapies in a murine model of blastoschizomycosis” (2007)
Converted amounts (≈) assume the structure as drawn. Starred links: 1 amine or outer side, 2 acyl side, 3 side chain; linkers in the order of their positions; H or OH if unused. Positions of bridges follow the written chain, without caps; N, C: chain ends. Non-standard residues stand in square brackets, D forms with d. Residues, ends and D or L forms follow the SMILES beside them. *: point of attachment. hTyr(3S-OH,4S-OH,3'-OSO3H) = N[C@H](C(=O)O)[C@H](O)[C@@H](O)c1ccc(O)c(OS(=O)(=O)O)c1; Orn(4R-OH,5R-OH) = O=C([C@H](C[C@@H](O)[C@@H](O)N[*:3])N[*:1])[*:2]; Pro(3S-OH,4S-Me) = C[C@H]1CN[C@H](C(=O)O)[C@H]1O; X1 = CCCCCOc1ccc(-c2cc(-c3ccc(C(=O)*)cc3)no2)cc1; Gln(3R-OH) = NC(=O)C[C@@H](O)[C@H](N)C(=O)O; Hyp = O=C(O)[C@@H]1C[C@@H](O)CN1

What was measured:
Type in all cases: functional
Magnusiomyces capitatus [1] = experiment: Antimicrobial activity against Blastoschizomyces capitatus IHEM 5666 isolate infected OF1 mouse blastoschizomycosis model assessed as mean survival time at 1 mg/kg/day, ip for 6 days administered 1 hr before microbial challenge; conditions: route intraperitoneal
Magnusiomyces capitatus [2] = experiment: Antimicrobial activity against Blastoschizomyces capitatus IHEM 16105 isolate infected OF1 mouse blastoschizomycosis model assessed as kidney microbial count per gram of tissue at 1 mg/kg/day, ip for 6 days administered 1 hr before microbial challenge; conditions: route intraperitoneal
Magnusiomyces capitatus [3] = experiment: Antimicrobial activity against Blastoschizomyces capitatus IHEM 5666 isolate infected OF1 mouse blastoschizomycosis model assessed as spleen microbial count at 1 mg/kg/day, ip for 6 days administered 1 hr before microbial challenge; conditions: route intraperitoneal
Magnusiomyces capitatus [4] = experiment: Antimicrobial activity against Blastoschizomyces capitatus IHEM 5666 isolate by microdilution method
Magnusiomyces capitatus [5] = experiment: Antimicrobial activity against Blastoschizomyces capitatus IHEM 5666 isolate infected OF1 mouse blastoschizomycosis model assessed as kidney microbial count at 1 mg/kg/day, ip for 6 days administered 1 hr before microbial challenge; conditions: route intraperitoneal
Magnusiomyces capitatus [6] = experiment: Antimicrobial activity against Blastoschizomyces capitatus IHEM 16105 isolate infected OF1 mouse blastoschizomycosis model assessed as spleen microbial count per gram of tissue at 1 mg/kg/day, ip for 6 days administered 1 hr before microbial challenge; conditions: route intraperitoneal
Magnusiomyces capitatus [7] = experiment: Antimicrobial activity against Blastoschizomyces capitatus IHEM 5666 isolate infected OF1 mouse blastoschizomycosis model assessed as liver microbial count at 1 mg/kg/day, ip for 6 days administered 1 hr before microbial challenge; conditions: route intraperitoneal
Magnusiomyces capitatus [8] = experiment: Antimicrobial activity against Blastoschizomyces capitatus IHEM 16105 isolate infected OF1 mouse blastoschizomycosis model assessed as mean survival time at 1 mg/kg/day, ip for 6 days administered 1 hr before microbial challenge; conditions: route intraperitoneal
Magnusiomyces capitatus [9] = experiment: Antimicrobial activity against Blastoschizomyces capitatus IHEM 16105 isolate infected OF1 mouse blastoschizomycosis model assessed as liver microbial count per gram of tissue at 1 mg/kg/day, ip for 6 days administered 1 hr before microbial challenge; conditions: route intraperitoneal
Magnusiomyces capitatus [10] = experiment: Antimicrobial activity against Blastoschizomyces capitatus IHEM 16105 isolate infected OF1 mouse blastoschizomycosis model assessed as mean survival time at 80 mg/kg/day, po for 6 days administered 1 hr before microbial challenge
Magnusiomyces capitatus [11] = experiment: Antimicrobial activity against Blastoschizomyces capitatus IHEM 5666 isolate infected OF1 mouse blastoschizomycosis model assessed as mean survival time at 80 mg/kg/day, po for 6 days administered 1 hr before microbial challenge
Magnusiomyces capitatus [12] = experiment: Antimicrobial activity against Blastoschizomyces capitatus IHEM 5666 isolate infected OF1 mouse blastoschizomycosis model assessed as liver microbial count per gram of tissue at 80 mg/kg/day, po for 6 days administered 1 hr before microbial challenge
Magnusiomyces capitatus [13] = experiment: Antimicrobial activity against Blastoschizomyces capitatus IHEM 16105 isolate infected OF1 mouse blastoschizomycosis model assessed as kidney microbial count per gram of tissue at 80 mg/kg/day, po for 6 days administered 1 hr before microbial challenge
Magnusiomyces capitatus [14] = experiment: Antimicrobial activity against Blastoschizomyces capitatus IHEM 16105 isolate infected OF1 mouse blastoschizomycosis model assessed as spleen microbial count per gram of tissue at 80 mg/kg/day, po for 6 days administered 1 hr before microbial challenge
Magnusiomyces capitatus [15] = experiment: Antimicrobial activity against Blastoschizomyces capitatus IHEM 5666 isolate infected OF1 mouse blastoschizomycosis model assessed as kidney microbial count per gram of tissue at 80 mg/kg/day, po for 6 days administered 1 hr before microbial challenge
Magnusiomyces capitatus [16] = experiment: Antimicrobial activity against Blastoschizomyces capitatus IHEM 5666 isolate infected OF1 mouse blastoschizomycosis model assessed as spleen microbial count per gram of tissue at 80 mg/kg/day, po for 6 days administered 1 hr before microbial challenge
Magnusiomyces capitatus [17] = experiment: Antimicrobial activity against Blastoschizomyces capitatus IHEM 16105 isolate infected OF1 mouse blastoschizomycosis model assessed as liver microbial count per gram of tissue at 80 mg/kg/day, po for 6 days administered 1 hr before microbial challenge
Magnusiomyces capitatus [18] = experiment: Antimicrobial activity against Blastoschizomyces capitatus IHEM 5666 isolate infected OF1 mouse blastoschizomycosis model assessed as spleen microbial count at 60 mg/kg/day, po for 6 days administered 1 hr before microbial challenge
Magnusiomyces capitatus [19] = experiment: Antimicrobial activity against Blastoschizomyces capitatus IHEM 5666 isolate infected OF1 mouse blastoschizomycosis model assessed as mean survival time at 60 mg/kg/day, po for 6 days administered 1 hr before microbial challenge
Magnusiomyces capitatus [20] = experiment: Antimicrobial activity against Blastoschizomyces capitatus IHEM 16105 isolate infected OF1 mouse blastoschizomycosis model assessed as spleen microbial count per gram of tissue at 60 mg/kg/day, po for 6 days administered 1 hr before microbial challenge
Magnusiomyces capitatus [21] = experiment: Antimicrobial activity against Blastoschizomyces capitatus IHEM 5666 isolate infected OF1 mouse blastoschizomycosis model assessed as kidney microbial count at 60 mg/kg/day, po for 6 days administered 1 hr before microbial challenge
Magnusiomyces capitatus [22] = experiment: Antimicrobial activity against Blastoschizomyces capitatus IHEM 5666 isolate infected OF1 mouse blastoschizomycosis model assessed as liver microbial count at 60 mg/kg/day, po for 6 days administered 1 hr before microbial challenge
Magnusiomyces capitatus [23] = experiment: Antimicrobial activity against Blastoschizomyces capitatus IHEM 16105 isolate infected OF1 mouse blastoschizomycosis model assessed as kidney microbial count per gram of tissue at 60 mg/kg/day, po for 6 days administered 1 hr before microbial challenge
Magnusiomyces capitatus [24] = experiment: Antimicrobial activity against Blastoschizomyces capitatus IHEM 16105 isolate by microdilution method
Magnusiomyces capitatus [25] = experiment: Antimicrobial activity against Blastoschizomyces capitatus IHEM 16105 isolate infected OF1 mouse blastoschizomycosis model assessed as mean survival time at 60 mg/kg/day, po for 6 days administered 1 hr before microbial challenge
Magnusiomyces capitatus [26] = experiment: Antimicrobial activity against Blastoschizomyces capitatus IHEM 16105 isolate infected OF1 mouse blastoschizomycosis model assessed as liver microbial count per gram of tissue at 60 mg/kg/day, po for 6 days administered 1 hr before microbial challenge
Magnusiomyces capitatus [27] = experiment: Antimicrobial activity against Blastoschizomyces capitatus IHEM 5666 isolate infected OF1 mouse blastoschizomycosis model assessed as liver microbial count at 10 mg/kg/day, sc for 6 days administered 1 hr before microbial challenge; conditions: route subcutaneous
Magnusiomyces capitatus [28] = experiment: Antimicrobial activity against Blastoschizomyces capitatus IHEM 16105 isolate infected OF1 mouse blastoschizomycosis model assessed as liver microbial count per gram of tissue at 10 mg/kg/day, sc for 6 days administered 1 hr before microbial challenge; conditions: route subcutaneous
Magnusiomyces capitatus [29] = experiment: Antimicrobial activity against Blastoschizomyces capitatus IHEM 5666 isolate infected OF1 mouse blastoschizomycosis model assessed as mean survival time at 10 mg/kg/day, sc for 6 days administered 1 hr before microbial challenge; conditions: route subcutaneous
Magnusiomyces capitatus [30] = experiment: Antimicrobial activity against Blastoschizomyces capitatus IHEM 5666 isolate infected OF1 mouse blastoschizomycosis model assessed as spleen microbial count at 10 mg/kg/day, sc for 6 days administered 1 hr before microbial challenge; conditions: route subcutaneous
Magnusiomyces capitatus [31] = experiment: Antimicrobial activity against Blastoschizomyces capitatus IHEM 5666 isolate infected OF1 mouse blastoschizomycosis model assessed as kidney microbial count at 10 mg/kg/day, sc for 6 days administered 1 hr before microbial challenge; conditions: route subcutaneous
Magnusiomyces capitatus [32] = experiment: Antimicrobial activity against Blastoschizomyces capitatus IHEM 16105 isolate infected OF1 mouse blastoschizomycosis model assessed as spleen microbial count per gram of tissue at 10 mg/kg/day, sc for 6 days administered 1 hr before microbial challenge; conditions: route subcutaneous
Magnusiomyces capitatus [33] = experiment: Antimicrobial activity against Blastoschizomyces capitatus IHEM 16105 isolate infected OF1 mouse blastoschizomycosis model assessed as kidney microbial count per gram of tissue at 10 mg/kg/day, sc for 6 days administered 1 hr before microbial challenge; conditions: route subcutaneous
Magnusiomyces capitatus [34] = experiment: Antimicrobial activity against Blastoschizomyces capitatus IHEM 16105 isolate infected OF1 mouse blastoschizomycosis model assessed as mean survival time at 10 mg/kg/day, sc for 6 days administered 1 hr before microbial challenge; conditions: route subcutaneous
Magnusiomyces capitatus [35] = experiment: Antimicrobial activity against Blastoschizomyces capitatus IHEM 5666 isolate infected OF1 mouse blastoschizomycosis model assessed as spleen microbial count at 40 mg/kg/day, po for 6 days administered 1 hr before microbial challenge
Magnusiomyces capitatus [36] = experiment: Antimicrobial activity against Blastoschizomyces capitatus IHEM 5666 isolate infected OF1 mouse blastoschizomycosis model assessed as kidney microbial count at 40 mg/kg/day, po for 6 days administered 1 hr before microbial challenge
Magnusiomyces capitatus [37] = experiment: Antimicrobial activity against Blastoschizomyces capitatus IHEM 5666 isolate infected OF1 mouse blastoschizomycosis model assessed as mean survival time at 40 mg/kg/day, po for 6 days administered 1 hr before microbial challenge
Magnusiomyces capitatus [38] = experiment: Antimicrobial activity against Blastoschizomyces capitatus IHEM 16105 isolate infected OF1 mouse blastoschizomycosis model assessed as mean survival time at 40 mg/kg/day, po for 6 days administered 1 hr before microbial challenge
Magnusiomyces capitatus [39] = experiment: Antimicrobial activity against Blastoschizomyces capitatus IHEM 16105 isolate infected OF1 mouse blastoschizomycosis model assessed as spleen microbial count per gram of tissue at 40 mg/kg/day, po for 6 days administered 1 hr before microbial challenge
Magnusiomyces capitatus [40] = experiment: Antimicrobial activity against Blastoschizomyces capitatus IHEM 5666 isolate infected OF1 mouse blastoschizomycosis model assessed as liver microbial count at 40 mg/kg/day, po for 6 days administered 1 hr before microbial challenge
Magnusiomyces capitatus [41] = experiment: Antimicrobial activity against Blastoschizomyces capitatus IHEM 16105 isolate infected OF1 mouse blastoschizomycosis model assessed as liver microbial count per gram of tissue at 40 mg/kg/day, po for 6 days administered 1 hr before microbial challenge
Magnusiomyces capitatus [42] = experiment: Antimicrobial activity against Blastoschizomyces capitatus IHEM 16105 isolate infected OF1 mouse blastoschizomycosis model assessed as kidney microbial count per gram of tissue at 40 mg/kg/day, po for 6 days administered 1 hr before microbial challenge

C[C@@H]1[C@H](O)[C@@H](C)/C=C/C=C/C=C/C=C/C=C/C=C/C=C/[C@H](O[C@@H]2O[C@H](C)[C@@H](O)[C@H](N)[C@@H]2O)C[C@@H]2O[C@](O)(C[C@@H](O)C[C@@H](O)[C@H](O)CC[C@@H](O)C[C@@H](O)CC(=O)O[C@H]1C)C[C@H](O)[C@H]2C(=O)O [AMPHOTERICIN B]
MST (Magnusiomyces capitatus [1]): 12.2 days | log10cfu (Magnusiomyces capitatus [2]): 7 | log10cfu (Magnusiomyces capitatus [3]): 4.87 | MIC (Magnusiomyces capitatus [4]): 1 µg/mL (≈ 1.08 µM) | log10cfu (Magnusiomyces capitatus [5]): 7.39 | log10cfu (Magnusiomyces capitatus [6]): 6.02 | log10cfu (Magnusiomyces capitatus [7]): 4.47 | MST (Magnusiomyces capitatus [8]): 12.3 days | log10cfu (Magnusiomyces capitatus [9]): 5.17

OC(Cn1cncn1)(Cn1cncn1)c1ccc(F)cc1F [FLUCONAZOLE]
MST (Magnusiomyces capitatus [10]): 25.7 days | MST (Magnusiomyces capitatus [11]): 30 days | log10cfu (Magnusiomyces capitatus [12]): 2.49 | log10cfu (Magnusiomyces capitatus [13]): 3.72 | MIC (Magnusiomyces capitatus [4]): 16 µg/mL (≈ 52.2 µM) | log10cfu (Magnusiomyces capitatus [14]): 1.59 | log10cfu (Magnusiomyces capitatus [15]): 4.31 | log10cfu (Magnusiomyces capitatus [16]): 2.05 | log10cfu (Magnusiomyces capitatus [17]): 1.37

Nc1nc(=O)[nH]cc1F [FLUCYTOSINE]
log10cfu (Magnusiomyces capitatus [18]): 6.76 | MST (Magnusiomyces capitatus [19]): 7.6 days | log10cfu (Magnusiomyces capitatus [20]): 5.45 | log10cfu (Magnusiomyces capitatus [21]): 7.13 | log10cfu (Magnusiomyces capitatus [22]): 5.69 | MIC (Magnusiomyces capitatus [4]): 64 µg/mL (≈ 496 µM) | log10cfu (Magnusiomyces capitatus [23]): 7.29 | MIC (Magnusiomyces capitatus [24]): 0.25 µg/mL (≈ 1.94 µM) | MST (Magnusiomyces capitatus [25]): 17.7 days | log10cfu (Magnusiomyces capitatus [26]): 4.28

CCCCCOc1ccc(-c2cc(-c3ccc(C(=O)N[C@H]4C[C@@H](O)[C@@H](O)NC(=O)[C@@H]5[C@@H](O)[C@@H](C)CN5C(=O)[C@H]([C@H](O)CC(N)=O)NC(=O)[C@H]([C@H](O)[C@@H](O)c5ccc(O)c(OS(=O)(=O)O)c5)NC(=O)[C@@H]5C[C@@H](O)CN5C(=O)[C@H]([C@@H](C)O)NC4=O)cc3)no2)cc1 [MICAFUNGIN] (X1-[Orn(4R-OH,5R-OH)]T[Hyp][hTyr(3S-OH,4S-OH,3'-OSO3H)][Gln(3R-OH)][Pro(3S-OH,4S-Me)]; lactam 1-C)
log10cfu (Magnusiomyces capitatus [27]): 5.32 | log10cfu (Magnusiomyces capitatus [28]): 5.26 | MST (Magnusiomyces capitatus [29]): 6.6 days | log10cfu (Magnusiomyces capitatus [30]): 7.03 | log10cfu (Magnusiomyces capitatus [31]): 7.52 | MIC (Magnusiomyces capitatus [4]): 64 µg/mL (≈ 50.4 µM) | MIC (Magnusiomyces capitatus [24]): 64 µg/mL (≈ 50.4 µM) | log10cfu (Magnusiomyces capitatus [32]): 7.69 | log10cfu (Magnusiomyces capitatus [33]): 7.5 | MST (Magnusiomyces capitatus [34]): 7.59 days

C[C@@H](c1ncncc1F)[C@](O)(Cn1cncn1)c1ccc(F)cc1F [VORICONAZOLE]
log10cfu (Magnusiomyces capitatus [35]): 4.75 | log10cfu (Magnusiomyces capitatus [36]): 6.78 | MST (Magnusiomyces capitatus [37]): 17.1 days | MIC (Magnusiomyces capitatus [4]): 0.25 µg/mL (≈ 0.716 µM) | MST (Magnusiomyces capitatus [38]): 15.78 days | log10cfu (Magnusiomyces capitatus [39]): 5.56 | MIC (Magnusiomyces capitatus [24]): 1 µg/mL (≈ 2.86 µM) | log10cfu (Magnusiomyces capitatus [40]): 5.63 | log10cfu (Magnusiomyces capitatus [41]): 4.33 | log10cfu (Magnusiomyces capitatus [42]): 6.98
